Here are results for twelve compounds from ChEMBL document CHEMBL1201862, “PubChem BioAssay data set” (2004).

Some test systems named below: U-251; A498; PC-3; SK-MEL-2; TK-10; DU-145; SF-268; SK-OV-3; SF-295; A549; IGROV-1; M14; HCC 2998; UO-31; SN12C; K562; OVCAR-5; HL-60.
Holding throughout (test): inhibition of tumour cell growth, NCI panel, 48 h

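Cells were grown in 96-well plates and exposed to each compound for 48 hours at five concentrations; endpoints were interpolated linearly between bracketing concentrations, or set to the highest concentration if not reached. At the GI50, growth is halved.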 Calls of active or inactive are those of the source. No stated cut-off is given here; in the data, active = GI50 up to about 1.1 µM and inactive = higher.

On to `CC1=CSC(O)(c2ccc(Cl)cc2)c2noc(=O)n21` (stereo not drawn), for which the GI50 is > 10 µM (inactive) in the test on U-251; > 100 µM (inactive) in the test with A498; 71.1 µM (inactive) with PC-3; 85.9 µM (inactive) in the test with SK-MEL-2; > 100 µM (inactive) in the test on TK-10; > 100 µM (inactive) in the test on DU-145. Besides, the GI50 with SF-268, with SK-OV-3, in the test with SF-295, in the test on A549, in the test on IGROV-1 and in the test with M14 was > 100 µM (inactive) each time. Besides, the GI50 with HCC 2998 is 14.4 µM (inactive); with UO-31 it was 58.1 µM (inactive); with SN12C, > 100 µM (inactive); in the test on K562 it was 61.1 µM (inactive); in the test on OVCAR-5, > 100 µM (inactive).

For `Oc1ccc(-c2cc(-c3cc(-c4ccc(O)cc4)no3)on2)cc1`, the GI50 is 39.9 µM (inactive) in the test with U-251; > 100 µM (inactive) with A498; 13.2 µM (inactive) in the test with PC-3; > 48 µM (inactive) with SK-MEL-2; > 100 µM (inactive) in the test with TK-10; 5.09 µM (inactive) in the test with DU-145. Further, the GI50 in the test with SF-268 is 41.2 µM (inactive); with SK-OV-3, > 100 µM (inactive); in the test on SF-295, 35.1 µM (inactive); in the test on A549, 50 µM (inactive); with IGROV-1, 43.7 µM (inactive); with HL-60, 3.36 µM (inactive). The GI50 in the test with M14 was > 32.4 µM (inactive); in the test on HCC 2998, > 63.4 µM (inactive); with UO-31, 10.8 µM (inactive); in the test with K562, 1.75 µM (inactive); with OVCAR-5, > 53.3 µM (inactive).

For `S=C1Cc2c(-c3ccccc3)cc(-c3ccc(Cl)cc3)nc2-c2ccccc2N1`, the GI50 was 0.746 µM (active) in the test on U-251; 1.62 µM (inactive) in the test on A498; 6.14 µM (inactive) in the test on PC-3; 6.85 µM (inactive) with SK-MEL-2; 2.12 µM (inactive) with TK-10; 13 µM (inactive) in the test on DU-145. Moreover, the GI50 was 1.89 µM (inactive) in the test with SF-268; 2.38 µM (inactive) in the test with SK-OV-3; 3.39 µM (inactive) in the test on SF-295; 3.17 µM (inactive) in the test with A549; 0.971 µM (active) in the test with IGROV-1; 16.9 µM (inactive) in the test on HL-60. Moreover, the GI50 was 3.97 µM (inactive) in the test with M14; 5.07 µM (inactive) in the test with HCC 2998; 1.96 µM (inactive) with UO-31; 1.63 µM (inactive) in the test on SN12C; 7.45 µM (inactive) with OVCAR-5.

Consider `CC1=NN(C(=O)CC(=O)Nc2cccc(Cl)c2)C(=O)C1/N=N/c1ccc(C(=O)O)cc1` (stereo not drawn), for which the GI50 with U-251, in the test with A498, in the test on PC-3, with SK-MEL-2, in the test on TK-10 and in the test with DU-145 was > 100 µM (inactive) throughout. In addition, the GI50 with SF-268, with SF-295, in the test with A549, in the test on IGROV-1, in the test on HL-60 and in the test with M14 was > 100 µM (inactive) in each case. In addition, the GI50 in the test on HCC 2998 was > 100 µM (inactive); in the test on UO-31 it was 65.2 µM (inactive); with SN12C it was > 100 µM (inactive); with K562, > 100 µM (inactive); in the test with OVCAR-5 it was > 100 µM (inactive).

As for `Cc1ccc(N/C(Sc2ccccc2)=C(/C(Cl)=C(Cl)Cl)[N+](=O)[O-])c(C)c1`, the GI50 is 13.8 µM (inactive) with U-251; 21.8 µM (inactive) in the test on A498; 17.7 µM (inactive) in the test with PC-3; 19.5 µM (inactive) in the test on SK-MEL-2; 45.6 µM (inactive) in the test on TK-10; 36.1 µM (inactive) with DU-145. Besides, the GI50 with SF-268 was 14 µM (inactive); with SK-OV-3, 37.8 µM (inactive); in the test with SF-295 it was 25.1 µM (inactive); in the test with A549, 33.8 µM (inactive); with IGROV-1, 19.5 µM (inactive); in the test on HL-60 it was 18.2 µM (inactive). In addition, the GI50 with M14 was 21.5 µM (inactive); in the test with HCC 2998 it was 17.7 µM (inactive); with SN12C, 18.4 µM (inactive); with K562, 18 µM (inactive); in the test with OVCAR-5, 17.8 µM (inactive).

`Cc1ccc(S(=O)(=O)N2CCN(CCO)CCN(S(=O)(=O)c3ccc(C)cc3)CCN(CCO)CC2)cc1`: the GI50 was 25.4 µM (inactive) with U-251; 24.7 µM (inactive) with A498; 33 µM (inactive) with PC-3; 16.5 µM (inactive) with SK-MEL-2; 28.2 µM (inactive) with TK-10; 15 µM (inactive) in the test with DU-145. Also, the GI50 in the test with SF-268 was 26.1 µM (inactive); in the test on SF-295, 31.7 µM (inactive); in the test on A549, 20.7 µM (inactive); in the test with IGROV-1, 21.5 µM (inactive); with HL-60, 18 µM (inactive); with M14, 17.1 µM (inactive). Moreover, the GI50 with HCC 2998 is 15.4 µM (inactive); in the test on UO-31, 22.6 µM (inactive); in the test with SN12C, 45 µM (inactive); in the test on K562, 17.1 µM (inactive); with OVCAR-5, 44.1 µM (inactive).

As to `O=C(/C=C\Nc1ccccc1O)C(Cl)(Cl)Cl`, the GI50 in the test on U-251 is 26.9 µM (inactive); in the test with A498 it was 35.6 µM (inactive); with PC-3, 37.7 µM (inactive); in the test with SK-MEL-2, 43.2 µM (inactive); in the test with TK-10, 78.5 µM (inactive); in the test with DU-145, 45.8 µM (inactive). The GI50 in the test with SF-268 was > 100 µM (inactive); with SK-OV-3, 53.2 µM (inactive); with SF-295, 3.87 µM (inactive); in the test on A549, 48.2 µM (inactive); with IGROV-1 it was 43.4 µM (inactive); in the test with HL-60 it was 21.8 µM (inactive). Moreover, the GI50 is 38.9 µM (inactive) in the test with M14; 26.3 µM (inactive) in the test on HCC 2998; 25.1 µM (inactive) in the test on UO-31; 72.8 µM (inactive) in the test on SN12C; 36.7 µM (inactive) in the test on K562; 77.4 µM (inactive) in the test with OVCAR-5.

As for `Cc1ccc(-c2c3c(n(C4OC(CO)C(O)C(O)C4O)c(=S)c2C#N)CC(C)(C)CC3=O)cc1` (stereo not drawn), the GI50 in the test on U-251 is 52.4 µM (inactive); in the test with A498, > 100 µM (inactive); in the test with PC-3, 41.1 µM (inactive); with SK-MEL-2, 80.9 µM (inactive); in the test on TK-10, > 100 µM (inactive); with DU-145, > 100 µM (inactive). Besides, the GI50 with SF-268 is > 100 µM (inactive); in the test with SF-295 it was > 100 µM (inactive); with A549, > 100 µM (inactive); in the test with IGROV-1 it was > 100 µM (inactive); in the test on HL-60, 41.5 µM (inactive); in the test with M14, 93.5 µM (inactive). Also, the GI50 with HCC 2998 was > 100 µM (inactive); with UO-31, 60 µM (inactive); in the test on SN12C, > 100 µM (inactive); in the test on K562 it was 45.2 µM (inactive); with OVCAR-5, > 100 µM (inactive).

Turning to `Cn1c([C@H](C#N)C(=O)c2cc(O)ccc2[N+](=O)[O-])nc2ccccc21`, the GI50 in the test with U-251, in the test with A498, in the test on PC-3, in the test with SK-MEL-2, with TK-10 and in the test with DU-145 was > 100 µM (inactive) throughout. For the same compound, the GI50 in the test with SF-268, in the test with SF-295, in the test on A549, in the test with IGROV-1, in the test with HL-60 and with M14 was > 100 µM (inactive) throughout. The GI50 in the test with HCC 2998, in the test on UO-31, with SN12C and in the test on OVCAR-5 was > 100 µM (inactive) each time.

For `O=c1ccn([C@@H]2C[C@@H]2CO)c(=O)[nH]1`, the GI50 with U-251, in the test on A498, in the test with PC-3, with SK-MEL-2, in the test with TK-10 and with DU-145 was > 100 µM (inactive) throughout. Further, the GI50 in the test on SF-268, in the test on A549, with IGROV-1, with HL-60, with M14 and in the test with HCC 2998 was > 100 µM (inactive) throughout. In addition, the GI50 in the test on UO-31, with SN12C, in the test with K562 and with OVCAR-5 was > 100 µM (inactive) each time.

With `O=C1c2ccccc2-n2c1nc1ccc([N+](=O)[O-])cc1c2=O`, the GI50 with U-251 was > 100 µM (inactive); with A498, 5.62 µM (inactive); in the test on PC-3 it was > 100 µM (inactive); with TK-10, > 100 µM (inactive); in the test on DU-145, > 100 µM (inactive); in the test with SF-268, 26.4 µM (inactive). Also, the GI50 with SK-OV-3 was > 100 µM (inactive); with SF-295, 24.1 µM (inactive); in the test on A549 it was > 100 µM (inactive); in the test with IGROV-1 it was 53.7 µM (inactive); in the test on HL-60 it was 13.9 µM (inactive); in the test with M14 it was 91.8 µM (inactive). Moreover, the GI50 with HCC 2998 was > 100 µM (inactive); in the test with UO-31, 42.9 µM (inactive); with SN12C, 49.2 µM (inactive); with K562 it was 30.1 µM (inactive); in the test on OVCAR-5, > 100 µM (inactive).

Regarding `c1csc(-c2nccc3c2[nH]c2ccccc23)c1`, the GI50 was 25.4 µM (inactive) in the test with U-251; 15.3 µM (inactive) in the test with A498; 21.6 µM (inactive) in the test with PC-3; 21.8 µM (inactive) in the test with SK-MEL-2; 21.1 µM (inactive) with TK-10; 27.9 µM (inactive) in the test on DU-145. Further, the GI50 was 27 µM (inactive) with SF-268; 14.2 µM (inactive) in the test on SK-OV-3; 16.1 µM (inactive) with SF-295; 18.5 µM (inactive) in the test on A549; 18.4 µM (inactive) with IGROV-1; 29.3 µM (inactive) in the test on HL-60. Further, the GI50 is 17.8 µM (inactive) with M14; 21.8 µM (inactive) in the test with HCC 2998; 16.8 µM (inactive) in the test on SN12C; 25.6 µM (inactive) in the test with K562; 28.2 µM (inactive) in the test on OVCAR-5.
